Earlier results in patent US20140141044A1, “Cord Colitis Syndrome Pathogen” (Dana-Farber Cancer Institute, Inc., priority 2012, published 2014).

Tested on: B. enterica
Conditions: direct or inferred from related organisms

SMILES: Cc1ncc([N+](=O)[O-])n1CCO [metronidazole]
- sensitivity of B. enterica: direct or inferred sensitivity
